Assay results taken from paper PMC3770298 (ACS medicinal chemistry letters, 2013).
One block for each compound: values may come before it.

What was measured:
RORγ = molecular target: T1, RORγ (Mus musculus, UniProt P51450); test: cell-based RORγ gene reporter assay; details: for IC50 (μM) (RORγ): Table 1, region A, mean of four replicates from two independent experiments
T1 sequence (P51450 1-516): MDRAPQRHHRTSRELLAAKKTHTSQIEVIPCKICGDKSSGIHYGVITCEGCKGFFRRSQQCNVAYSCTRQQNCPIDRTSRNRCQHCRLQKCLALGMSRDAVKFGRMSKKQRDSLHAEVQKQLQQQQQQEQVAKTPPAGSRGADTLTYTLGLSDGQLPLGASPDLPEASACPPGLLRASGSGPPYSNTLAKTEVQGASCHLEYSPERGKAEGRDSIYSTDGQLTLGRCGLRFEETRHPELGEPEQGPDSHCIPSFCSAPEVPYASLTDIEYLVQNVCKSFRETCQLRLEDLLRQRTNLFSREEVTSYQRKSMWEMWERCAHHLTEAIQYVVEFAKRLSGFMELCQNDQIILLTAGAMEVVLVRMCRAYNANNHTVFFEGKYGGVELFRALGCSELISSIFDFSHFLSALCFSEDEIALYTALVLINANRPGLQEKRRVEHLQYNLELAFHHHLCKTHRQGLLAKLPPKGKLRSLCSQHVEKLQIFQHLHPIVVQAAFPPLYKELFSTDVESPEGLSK

[1] = molecular target: T2, RORγ ligand binding domain (LBD) (Homo sapiens, UniProt P51449); test: fluoroprobe; details: competition assay
T2 sequence (P51449 269-508 limits assumed): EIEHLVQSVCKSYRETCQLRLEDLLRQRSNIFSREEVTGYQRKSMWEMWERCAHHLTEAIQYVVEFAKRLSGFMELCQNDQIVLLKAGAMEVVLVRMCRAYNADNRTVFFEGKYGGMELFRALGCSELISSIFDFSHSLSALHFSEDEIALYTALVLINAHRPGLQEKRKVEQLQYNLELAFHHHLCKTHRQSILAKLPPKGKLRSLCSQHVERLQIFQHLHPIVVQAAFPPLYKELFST

VP16 = type: cell-based; details: up to 96 μM
RORα = molecular target: T3, RORα (Mus musculus, UniProt P51448); test: RORα gene reporter assay; type: cell-based; details: up to 96 μM
T3 sequence (P51448 1-523): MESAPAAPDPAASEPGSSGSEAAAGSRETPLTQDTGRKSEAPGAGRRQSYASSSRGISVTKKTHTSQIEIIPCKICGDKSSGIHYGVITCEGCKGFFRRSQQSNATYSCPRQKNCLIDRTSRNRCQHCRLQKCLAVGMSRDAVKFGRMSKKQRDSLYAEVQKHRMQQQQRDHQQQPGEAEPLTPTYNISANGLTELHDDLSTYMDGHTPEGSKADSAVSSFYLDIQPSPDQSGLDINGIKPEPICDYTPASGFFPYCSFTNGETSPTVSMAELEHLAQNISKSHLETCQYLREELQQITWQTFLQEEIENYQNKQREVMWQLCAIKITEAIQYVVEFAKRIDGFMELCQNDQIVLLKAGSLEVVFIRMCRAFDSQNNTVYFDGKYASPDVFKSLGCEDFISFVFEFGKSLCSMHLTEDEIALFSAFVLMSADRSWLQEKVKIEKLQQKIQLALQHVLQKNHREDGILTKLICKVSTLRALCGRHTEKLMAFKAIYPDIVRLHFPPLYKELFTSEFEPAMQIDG

Th1 cell differentiation = test: Th1 cell differentiation; type: cell-based, mouse; details: 20 μM; data not shown
DHR3 = molecular target: T4, DHR3 (Drosophila melanogaster, UniProt P31396); test: DHR3 gene reporter assay; type: cell-based; details: up to 96 μM
T4 sequence (P31396 1-487): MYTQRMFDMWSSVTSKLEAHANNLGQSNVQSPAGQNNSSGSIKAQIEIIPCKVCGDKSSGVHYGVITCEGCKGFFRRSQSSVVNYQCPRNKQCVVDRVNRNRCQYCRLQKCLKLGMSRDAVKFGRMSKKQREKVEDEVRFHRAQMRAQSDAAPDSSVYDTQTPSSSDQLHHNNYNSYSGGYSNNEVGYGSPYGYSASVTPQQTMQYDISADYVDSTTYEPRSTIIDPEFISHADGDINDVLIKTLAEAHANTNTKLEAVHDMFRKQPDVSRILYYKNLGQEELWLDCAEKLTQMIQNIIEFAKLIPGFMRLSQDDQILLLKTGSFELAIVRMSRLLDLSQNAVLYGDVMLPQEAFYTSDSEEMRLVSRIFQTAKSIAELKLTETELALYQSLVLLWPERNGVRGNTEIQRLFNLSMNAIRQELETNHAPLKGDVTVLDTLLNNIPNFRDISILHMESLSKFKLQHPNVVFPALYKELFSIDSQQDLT

[2] = system: mouse TH17 cell differentiation; test: mouse TH17 cell differentiation; type: cell-based; details: read-out: inhibition of mouse TH17 cell differentiation

- IC50 (μM) (RORγ) (RORγ): inactive
SMILES: COc1cc(O)c(C(CC(=O)N2C[C@@H](C)N[C@@H](C)C2)c2ccc3c(c2)OCO3)c(OC)c1 (stereo partly drawn) [Compound 4m]

SMILES: C[C@H]1O[C@@H](O[C@H]2[C@@H](O)C[C@H](O[C@H]3[C@@H](O)C[C@H](O[C@H]4CC[C@@]5(C)[C@H](CC[C@@H]6[C@@H]5C[C@@H](O)[C@]5(C)[C@@H](C7=CC(=O)OC7)CC[C@]65O)C4)O[C@@H]3C)O[C@@H]2C)C[C@H](O)[C@@H]1O [Digoxin, reference compound]
- result in qHTS for RORγ antagonists (RORγ; qHTS of 310,000 compounds with VP16 counterscreen): selective antagonists

- displacement of hydroxycholesterol from RORγ LBD [1]: failed to displace
- IC50 (μM) (RORγ) (RORγ): inactive
SMILES: COc1cc(O)c(C(CC(=O)N2CCOCC2)c2ccc3c(c2)OCO3)c(OC)c1 (stereo not drawn) [Compound 4k]

SMILES: COc1cc(O)c(C(CC(=O)N2CCCC(C)C2)c2ccc3c(c2)OCO3)c(OC)c1 (stereo not drawn) [Compound 4a]
- activity in the VP16 assay (VP16): no activity
- activity in the RORα assay (RORα): no activity
- effect on Th1 cell differentiation (Th1 cell differentiation): no effect
- activity in the DHR3 assay (DHR3): no activity
- inhibition at 20 µM [2]: 84%
